Assay results: PMC9305971, “Development of [^18F]AmBF3 Tetrazine for Radiolabeling of Peptides: Preclinical Evaluation and PET Imaging of [^18F]AmBF3-PEG7-Tyr^3-Octreotide in an AR42J Pancreatic Carcinoma Model” (Bioconjugate Chemistry, 2022)

Columns and labels:
[1] = Lipophilicity, shake-flask log D7.4 (1-octanol/PBS); assay type: physicochemical; settings: 1-octanol/PBS pH 7.4, n = 4
Procedure: (§1) Lipophilicity was determined with the shake-flask method as a distribution coefficient between 0.01 M PBS and octanol. Purified radiotracer [^18F]6 (10 μL, ∼200 kBq, 1.5 nmol), [^18F]14 (20 μL, ∼260 kBq, 125 pmol), or [^18F]15 (20 μL, 144 kBq, 67 pmol) in a polypropylene tube containing 1500–2000 μL of each in a 1:1 mixture (1-octanol, 0.02 M PBS, pH 7.4) was shaken mechanically (500 rpm, 10 min) and centrifuged (1000g, 5 min), and samples from each layer (400 μL, n = 4) were measured with a γ-counter. The log D7.4 was calculated as a distribution between the two layers at pH 7.4. [^18F]6 (10 MBq, 40 nmol) diluted with 0.01 M PBS at pH 7.4 (≤1% ethanol, 5300 μL) was incubated for 180 min. At selected time points (5, 30, 60, 90, 120, 150, and 180 min), a sample (100 μL) was injected to radio-HPLC. [^18F]14 and [^18F]15 (29 MBq, 10 nmol) diluted in 2000 μL of 0.01 M PBS (≤1% ethanol) were left to incubate. A sample of [^18F]14 (100 μL) after 9 hours and [^18F]15 at selected time points between 30 and 335 min were injected into HPLC (method A). [^18F]15 (0.6 MBq, 0.134 nmol, 200 μL) formulated in ≤5% EtOH-1 × PBS was added and incubated in 2000 μL of PBS-50% human plasma at 37 °C. A 100 μL sample (at 60, 120, 180, and 240 min, n = 2) was diluted with 200 μL of cold acetonitrile and centrifuged (10,000g, 5 min). After centrifugation, a 100 μL sample of the supernatant was injected for radio-HPLC analysis. […]
Lipophilicity. The lipophilicities were determined with the shake-flask method as a distribution profile between 0.01 M PBS and octanol at pH 7.4. The distribution of the radiolabeled compound between the octanol and the PBS layers was calculated according

[2] = Enzymatic stability in 50% human plasma-0.01 M PBS; assay type: in vitro ADME; settings: 50% (v/v) human plasma-0.01 M PBS
Procedure: as §1, with “min).” for “min). After centrifugation, a 100 μL sample of the supernatant was injected for radio-HPLC analysis.”

SMILES	logD [1]	enzymatic stability (in words) ([2]; radio-HPLC)	log D7.4 [1]	enzymatic stability, time stable ([2]; 37 °C)
C[C@@H](O)[C@@H]1NC(=O)[C@H](CCCCN)NC(=O)[C@@H](Cc2c[nH]c3ccccc23)NC(=O)[C@H](Cc2ccc(O)cc2)NC(=O)[C@@H](NC(=O)[C@@H](Cc2ccccc2)NC(=O)CCOCCOCCOCCOCCON=Cc2ccc(CNC(=O)OC3CCCc4cnnc(-c5ccc(CC(=O)NCC[N+](C)(C)C[B-](F)(F)F)cc5)c4CC3)cc2)CSSC[C@@H](C(=O)N[C@H](CO)[C@@H](C)O)NC1=O (some centres unmarked) [[^18F]14]	-0.58 ± 0.06	a polar radiometabolite was detected		
C[C@@H](O)[C@@H]1NC(=O)[C@H](CCCCN)NC(=O)[C@@H](Cc2c[nH]c3ccccc23)NC(=O)[C@H](Cc2ccc(O)cc2)NC(=O)[C@@H](NC(=O)[C@@H](Cc2ccccc2)NC(=O)CCOCCOCCOCCOCCON=Cc2ccc(C(=O)NCCOCCOCCOCCNC(=O)OC3CCCc4cnnc(-c5ccc(CC(=O)NCC[N+](C)(C)C[B-](F)(F)F)cc5)c4CC3)cc2)CSSC[C@@H](C(=O)N[C@H](CO)[C@@H](C)O)NC1=O (some centres unmarked) [[^18F]15]	-0.7 ± 0.1		−0.73 ± 0.12	at least 180 min
